Results published in paper PMC2668073, “N- and C-Terminal Domains of the Calcium Binding Protein EhCaBP1 of the Parasite Entamoeba histolytica Display Distinct Functions” (PLoS ONE, 2009).

Target: T1, EhCaBP1 (Entamoeba histolytica, UniProt P38505)
T1 construct: gene CaBP1; trimer, Phe site between EF1 and EF2 of neighbouring molecules; C-terminal half without density; strain printed for amoeba culture only
Assay: X-ray crystal structure of the complex (co-crystallisation)
Assay type: binding
Details: 2 mM phenylalanine, 10 mM CaCl2 in protein solution; crystals from 63-65% MPD, 5 mM CaCl2, 50 mM acetate pH 4, 16 °C; hydrophobic pocket between EF1 and EF2 of adjacent molecules

T1 sequence (P38505 whole entry): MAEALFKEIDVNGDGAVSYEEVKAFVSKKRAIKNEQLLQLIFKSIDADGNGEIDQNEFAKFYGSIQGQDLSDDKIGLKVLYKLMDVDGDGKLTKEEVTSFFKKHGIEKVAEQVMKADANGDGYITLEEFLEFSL

N[C@@H](Cc1ccccc1)C(=O)O [Phenylalanine]
X-ray crystal structure of the complex (co-crystallisation): hydrophobic pocket formed at the interface between EF1 and EF2 in the assembled domain
